Assay results reported in US12185723B2, “Herbicidally active 3-phenylisoxazoline-5-carboxamides of s-containing cyclopentenylcarboxylic esters” (Bayer Aktiengesellschaft, priority 2019, dated 2025).

Tests used:
Type in all cases: in vivo
[1] = test system: Polygonum convolvulus; assay: Post-emergence herbicidal action against POLCO; conditions: 20 g a.i./ha
Protocol: (§1) Post-Emergence Herbicidal Action Against Harmful Plants and Crop Plant Compatibility Seeds of monocotyledonous and dicotyledonous weeds and crop plants are placed in sandy loam in plastic or wood-fibre pots, covered with soil and cultivated in a greenhouse under controlled growth conditions. 2 to 3 weeks after sowing, the test plants are treated at the one-leaf stage. The compounds of the invention, formulated in the form of wettable powders (WP) or as emulsion concentrates (EC), are then sprayed onto the green parts of the plants as aqueous suspension or emulsion with addition of 0.5% additive at a water application rate of 600 l/ha (converted). After the test plants have been kept in the greenhouse under optimum growth conditions for about 3 weeks, the activity of the preparations is rated visually in comparison to untreated controls. For example, 100% activity=the plants have died, 0% activity=like control plants. [table]

[2] = test system: Alopecurus myosuroides; assay: Post-emergence herbicidal action against ALOMY; conditions: 20 g a.i./ha, visual rating about 3 weeks after treatment
Protocol: as §1

[3] = test system: Echinochloa crus-galli; assay: Post-emergence herbicidal action against ECHCG; conditions: 20 g a.i./ha, visual rating about 3 weeks after treatment
Protocol: as §1

[4] = test system: Veronica persica; assay: Post-emergence herbicidal action against VERPE; conditions: 20 g a.i./ha
Protocol: as §1

[5] = test system: Avena fatua; assay: Post-emergence herbicidal action against AVEFA; conditions: 20 g a.i./ha, visual rating about 3 weeks after treatment
Protocol: as §1

[6] = test system: Setaria viridis; assay: Post-emergence herbicidal action against SETVI; conditions: visual rating about 3 weeks after treatment
Protocol: as §1

[7] = test system: DIGSA; assay: Post-emergence herbicidal action against DIGSA; conditions: 20 g a.i./ha, visual rating about 3 weeks after treatment
Protocol: as §1, with “plants.” for “plants. [table]”

[8] = test system: Pharbitis purpurea; assay: Post-emergence herbicidal action against PHBPU; conditions: 20 g a.i./ha
Protocol: as §1

[9] = test system: Amaranthus retroflexus; assay: Post-emergence herbicidal action against AMARE; conditions: 20 g a.i./ha
Protocol: as §1

[10] = test system: Lolium rigidum; assay: Post-emergence herbicidal action against LOLRI; conditions: 20 g a.i./ha, visual rating about 3 weeks after treatment
Protocol: as §1

CSCCOC(=O)C1C=CC(NC(=O)C2(CCl)CC(c3cc(F)cc(C#N)c3)=NO2)C1 (stereo not shown) [Example I-58]
90%: Herbicidal action against [%] ALOMY [2]
80%: Herbicidal action against [%] POLCO [1] | Herbicidal action against [%] ECHCG [3] | Herbicidal action against [%] VERPE [4] | Herbicidal action against [%] AVEFA [5]

CC(C)C(=O)SCCOC(=O)C1C=CC(NC(=O)C2(C)CC(c3cc(F)cc(F)c3)=NO2)C1 (stereo not shown) [Example I-05]
80%: Herbicidal action against [%] POLCO [1] | Herbicidal action against [%] SETVI ([6]; 20 g a.i./ha) | Herbicidal action against [%] DIGSA [7] | Herbicidal action against [%] PHBPU [8] | Herbicidal action against [%] ECHCG [3] | Herbicidal action against [%] VERPE [4]
100%: Herbicidal action against [%] ALOMY [2]

C[S+]([O-])CCOC(=O)C1C=CC(NC(=O)C2(C)CC(c3cccc(F)c3)=NO2)C1 (mixture of isomers) [Example I-61]
80%: Herbicidal action against [%] SETVI ([6]; 20 g a.i./ha) | Herbicidal action against [%] AMARE [9] | Herbicidal action against [%] ALOMY [2] | Herbicidal action against [%] ECHCG [3] | Herbicidal action against [%] VERPE [4]

C=CC1(C(=O)NC2C=CC(C(=O)OCCSC)C2)CC(c2cc(C)cc(F)c2)=NO1 (stereo not shown) [Example I-56]
80%: Herbicidal action against [%] POLCO [1] | Herbicidal action against [%] LOLRI [10] | Herbicidal action against [%] ALOMY [2]

CSCCOC(=O)C1C=CC(NC(=O)C2(C)CC(c3cc(C)cc(F)c3)=NO2)C1 (stereo not shown) [Example I-59]
80%: Herbicidal action against [%] AMARE [9] | Herbicidal action against [%] PHBPU [8] | Herbicidal action against [%] ECHCG [3] | Herbicidal action against [%] VERPE [4]
90%: Herbicidal action against [%] DIGSA [7]

CSCCOC(=O)C1C=CC(NC(=O)C2(C)CC(c3cc(C#N)cc(C#N)c3)=NO2)C1 (stereo not shown) [Example I-52]
80%: Herbicidal action against [%] POLCO [1] | Herbicidal action against [%] PHBPU [8] | Herbicidal action against [%] VERPE [4] | Herbicidal action against [%] AVEFA [5]
90%: Herbicidal action against [%] ALOMY [2]

CSCCOC(=O)C1C=CC(NC(=O)C2(CCl)CC(c3cc(F)cc(F)c3)=NO2)C1 (stereo not shown) [Example I-60]
80%: Herbicidal action against [%] POLCO [1] | Herbicidal action against [%] LOLRI [10] | Herbicidal action against [%] AMARE [9] | Herbicidal action against [%] ALOMY [2] | Herbicidal action against [%] ECHCG [3] | Herbicidal action against [%] AVEFA [5]

CSCCOC(=O)C1C=CC(NC(=O)C2(C3CC3)CC(c3cc(F)cc(F)c3)=NO2)C1 (stereo not shown) [Example I-27]
90%: Herbicidal action against [%] SETVI ([6]; 80 g a.i./ha)

CSCCOC(=O)C1C=CC(NC(=O)C2(C)CC(c3cc(Cl)cc(C#N)c3)=NO2)C1 (stereo not shown) [Example I-72]
90%: Herbicidal action against [%] LOLRI [10] | Herbicidal action against [%] SETVI ([6]; 20 g a.i./ha) | Herbicidal action against [%] ALOMY [2] | Herbicidal action against [%] DIGSA [7]
80%: Herbicidal action against [%] POLCO [1] | Herbicidal action against [%] AMARE [9] | Herbicidal action against [%] ECHCG [3] | Herbicidal action against [%] VERPE [4] | Herbicidal action against [%] AVEFA [5]

CSCCOC(=O)C1C=CC(NC(=O)C2(CO)CC(c3cc(F)cc(F)c3)=NO2)C1 (stereo not shown) [Example I-70]
100%: Herbicidal action against [%] ALOMY [2]
90%: Herbicidal action against [%] SETVI ([6]; 20 g a.i./ha) | Herbicidal action against [%] ECHCG [3]
80%: Herbicidal action against [%] POLCO [1] | Herbicidal action against [%] PHBPU [8] | Herbicidal action against [%] AVEFA [5]

CC(=O)CCSCCOC(=O)C1C=CC(NC(=O)C2(C)CC(c3cc(F)cc(F)c3)=NO2)C1 (stereo not shown) [Example I-15]
90%: Herbicidal action against [%] ALOMY [2]
80%: Herbicidal action against [%] POLCO [1] | Herbicidal action against [%] LOLRI [10] | Herbicidal action against [%] DIGSA [7] | Herbicidal action against [%] ECHCG [3] | Herbicidal action against [%] VERPE [4]

CC1(C(=O)NC2C=CC(C(=O)OCCSC3CCCCC3)C2)CC(c2cc(F)cc(F)c2)=NO1 (stereo not shown) [Example I-03]
90%: Herbicidal action against [%] ALOMY [2]
80%: Herbicidal action against [%] POLCO [1] | Herbicidal action against [%] SETVI ([6]; 20 g a.i./ha) | Herbicidal action against [%] DIGSA [7] | Herbicidal action against [%] PHBPU [8] | Herbicidal action against [%] ECHCG [3]
